The target of one data set is T1, NPM-ALK (Homo sapiens, UniProt Q9UM73).
T1 construct: a fusion protein consisting of nucleophosmin (NMP) and the intracellular domain of ALK; the other entry of the earlier key: NPM1 (P06748, Nucleophosmin)
As to the kind of experiment: ALK Cellular Assay (phospho-NPM-ALK immunoblot / ALK tyrosine phosphorylation ELISA). It counts as cell-based. The conditions noted are these: for inhibition at 1 µM: NPM-ALK, 1 μM compound, read-out: ALK Cellular Activity Inhibition Score at 1 μM. As for the experimental part:
Immunoblotting of phospho-NPM-ALK and total NPM-ALK from cell lysates was carried out according to the protocols provided by the antibody suppliers. In brief, after treatment of Example compounds, cells were lysed in Frak lysis buffer [10 mM Tris, pH 7.5, 1% Triton X-100, 50 mM sodium chloride, 20 mM sodium fluoride, 2 mM sodium pyrophosphate, 0.1% BSA, plus freshly prepared 1 mM activated sodium vanadate, 1 mM dithiothreitol (#165680050, ARCOS Organics, Geel, Belgium), and 1 mM PMSF (#837091, Boehringer Mannheim Biochemicals, Indianapolis, Ind.), protease inhibitors cocktail III (#539134-1Set, Calbiochem, 1:100 dilution)]. After brief sonication, the lysates were cleared by centrifugation, mixed with sample buffer and subjected to SDS-PAGE. Following transfer to membranes, the membranes were blotted with either rabbit phospho-NPM-ALK(Y664) (Cat^#3341) or ALK antibody (Cat^#3342) from Cell Signaling Technology (Beverly, Mass.), and then the HRP-conjugated goat anti-rabbit antibodies (Santa Cruz, Calif.) after washed in TBS/0.2% Tween-20. The protein bands were visualized with ECL Western Blotting detection reagents (RPN2106, Amersham Biosciences, Buckinghamshire, UK) and quantitated with gel-pro analyzer 3.1 software.
To measure ALK tyrosine phosphorylation in cells with an ELISA assay, fluoronunc plates (Cat^#437796, Nalge Nunc, Rochester, N.Y.) were pre-coated with goat anti-mouse IgG, and incubated with the capture mouse ALK antibody (Cat^#35-4300, Zymed, Seattle, Wash.) diluted 1:1000 in Superblock (Pierce, Rockford, Ill.). Following blocking, cell lysates were added to plates and incubated overnight at 4° C. Plates were incubated with the detecting antibody, anti-phospho-ALK (Y664) (Cell Signaling Technology), diluted at 1:2000, followed by incubation with goat anti-rabbit-IgG alkaline phosphatase to amplify the detection. Wells were exposed to the fluorogenic substrate 4-MeUP (#3368-04-5, Calbiochem) and the signal quantified using a CytoFluor® (series 4000) Fluorescence Multi-Well Plate Reader (Applied Biosystems, Foster City, Calif.).
On the technique in general: Immunoblotting shows a protein as a band on a membrane.

Data set [1] addresses T2, c-Met (cytoplasmic domain) (Homo sapiens, UniProt P08581).
T2 construct: Reactions were initiated with 30 ng/mL c-Met (cytoplasmic domain, Invitrogen Corporation #PV3143); purchased Invitrogen Corporation PV3143
As to the kind of experiment: c-Met Kinase Assay (ELISA/TRF, PLC-γ substrate). It counts as biochemical. The conditions noted are these: 3 μM ATP (Km level); read-out: c-Met Kinase Inhibition (IC50). In short, it runs like this: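 Readout is TRF of europium anti-phosphotyrosine (PT66) bound to GST–PLC-γ substrate coated at 10 μg/mL, after a 15 min, 37 °C reaction started with 30 ng/mL c-Met cytoplasmic domain. Percent inhibition plotted against log compound concentration and fitted (variable slope) for IC50.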
A general note: In an ELISA, binding on a coated surface is turned into a signal by an enzyme label.

Data set [2] has as its target baculovirus-expressed ALK (Homo sapiens, UniProt Q9UM73). As to the kind of experiment: ALK Kinase Assay (ELISA/TRF, PLC-γ substrate). Further: 1 µM ATP (Km level). In kind it is biochemical. As to conditions: read-out: ALK Kinase Inhibition (IC50). In short, it runs like this:
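ALK at 30 ng/ml phosphorylated plate-bound PLC-γ–GST fusion (coated from 10 μg/mL) during 15 minutes at 37° C. Product was detected with Eu-N1 PT66 anti-phosphotyrosine antibody and measured by time-resolved fluorescence.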

Data set [3] addresses T3, c-Met (phospho-c-Met) in A549 cells (Homo sapiens, UniProt P08581).
T3 construct: endogenous in cells; host or cells: HT29, A549 (HGF-stimulated), GTL-16
In words: c-Met Cellular Activity/Autophosphorylation Assay, A549 cells (HGF stimulated). As to conditions: 50 ng/mL HGF. In kind it is cell-based. As for the experimental part: (§1) HT29 and GTL-16 cells were serum starved for one hour in media containing 0.05% BSA and varying concentrations of Example compounds (1-10 μM). A549 cells were serum starved overnight in media containing 0.05% BSA then treated for one hour with Example compounds followed by a 15 minute stimulation with 50 ng/mL HGF (Peprotech, Rocky Hill, N.J.), respectively. Samples were resolved by electrophoresis on a 3-8% Tris-Acetate gel (40 ma/gel) and then transferred to a nitrocellulose membrane. Membranes were blocked for one hour at room temperature in Odyssey Blocking Buffer (Licor #927-40000) diluted 1:1 with 1×TBS. Membranes were then co-incubated overnight at 4° C. with primary antibodies [total Met (Cell Signaling, #3127) and Phospho-Met (Biosource, #44-888G) 1:1000 each in Odyssey Blocking Buffer diluted 1:1 with 1×TBS-T 0.05%]. The next day, membranes were washed and co-incubated with secondary antibodies [Goat anti mouse IRDye800 (Rockland, #610-132-121) and Goat anti rabbit Alexa fluor 700 (Molecular Probes, #A21038) 1:10,000] in Odyssey Blocking Buffer diluted 1:1 with 1×TBS-T 0.05% for one hour at room temperature protected from light. Blots were then washed and read on the Odyssey Infrared Imager. Total c-Met signal was visualized at 800 nm detection and phospho-c-Met signal was visualized at 700 nm detection.

For data set [4], the target named is T4, c-Met (phospho-c-Met) in HT29 cells (Homo sapiens, UniProt P08581).
T4 construct: endogenous in cells; host or cells: HT29, A549 (HGF-stimulated), GTL-16
In words: c-Met Cellular Activity/Autophosphorylation Assay, HT29 cells. In kind it is cell-based. As for the experimental part: as §1

Where a name gives a salt, the structure may show the parent alone.

T1 sequence (Q9UM73 with tags, fused parts or gaps): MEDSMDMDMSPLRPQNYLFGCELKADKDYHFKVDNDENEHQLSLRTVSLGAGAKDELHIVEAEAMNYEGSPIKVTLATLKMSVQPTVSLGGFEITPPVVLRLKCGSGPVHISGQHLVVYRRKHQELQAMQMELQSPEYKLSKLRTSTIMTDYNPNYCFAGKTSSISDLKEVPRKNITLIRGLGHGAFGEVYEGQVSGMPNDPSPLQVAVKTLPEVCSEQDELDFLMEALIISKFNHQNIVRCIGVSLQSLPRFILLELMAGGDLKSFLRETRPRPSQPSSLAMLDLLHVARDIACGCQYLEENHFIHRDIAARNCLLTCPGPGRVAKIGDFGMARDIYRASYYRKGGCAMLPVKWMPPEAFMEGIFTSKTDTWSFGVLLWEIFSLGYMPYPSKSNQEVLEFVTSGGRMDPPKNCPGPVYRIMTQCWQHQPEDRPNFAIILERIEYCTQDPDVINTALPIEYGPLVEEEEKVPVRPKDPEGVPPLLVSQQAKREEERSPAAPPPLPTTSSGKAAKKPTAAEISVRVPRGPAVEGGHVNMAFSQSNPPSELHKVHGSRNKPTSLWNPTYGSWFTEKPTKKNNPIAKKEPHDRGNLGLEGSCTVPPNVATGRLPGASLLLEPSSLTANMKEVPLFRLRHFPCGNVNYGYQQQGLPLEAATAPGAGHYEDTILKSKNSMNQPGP
Sequence of baculovirus-expressed ALK (Q9UM73 19-1620): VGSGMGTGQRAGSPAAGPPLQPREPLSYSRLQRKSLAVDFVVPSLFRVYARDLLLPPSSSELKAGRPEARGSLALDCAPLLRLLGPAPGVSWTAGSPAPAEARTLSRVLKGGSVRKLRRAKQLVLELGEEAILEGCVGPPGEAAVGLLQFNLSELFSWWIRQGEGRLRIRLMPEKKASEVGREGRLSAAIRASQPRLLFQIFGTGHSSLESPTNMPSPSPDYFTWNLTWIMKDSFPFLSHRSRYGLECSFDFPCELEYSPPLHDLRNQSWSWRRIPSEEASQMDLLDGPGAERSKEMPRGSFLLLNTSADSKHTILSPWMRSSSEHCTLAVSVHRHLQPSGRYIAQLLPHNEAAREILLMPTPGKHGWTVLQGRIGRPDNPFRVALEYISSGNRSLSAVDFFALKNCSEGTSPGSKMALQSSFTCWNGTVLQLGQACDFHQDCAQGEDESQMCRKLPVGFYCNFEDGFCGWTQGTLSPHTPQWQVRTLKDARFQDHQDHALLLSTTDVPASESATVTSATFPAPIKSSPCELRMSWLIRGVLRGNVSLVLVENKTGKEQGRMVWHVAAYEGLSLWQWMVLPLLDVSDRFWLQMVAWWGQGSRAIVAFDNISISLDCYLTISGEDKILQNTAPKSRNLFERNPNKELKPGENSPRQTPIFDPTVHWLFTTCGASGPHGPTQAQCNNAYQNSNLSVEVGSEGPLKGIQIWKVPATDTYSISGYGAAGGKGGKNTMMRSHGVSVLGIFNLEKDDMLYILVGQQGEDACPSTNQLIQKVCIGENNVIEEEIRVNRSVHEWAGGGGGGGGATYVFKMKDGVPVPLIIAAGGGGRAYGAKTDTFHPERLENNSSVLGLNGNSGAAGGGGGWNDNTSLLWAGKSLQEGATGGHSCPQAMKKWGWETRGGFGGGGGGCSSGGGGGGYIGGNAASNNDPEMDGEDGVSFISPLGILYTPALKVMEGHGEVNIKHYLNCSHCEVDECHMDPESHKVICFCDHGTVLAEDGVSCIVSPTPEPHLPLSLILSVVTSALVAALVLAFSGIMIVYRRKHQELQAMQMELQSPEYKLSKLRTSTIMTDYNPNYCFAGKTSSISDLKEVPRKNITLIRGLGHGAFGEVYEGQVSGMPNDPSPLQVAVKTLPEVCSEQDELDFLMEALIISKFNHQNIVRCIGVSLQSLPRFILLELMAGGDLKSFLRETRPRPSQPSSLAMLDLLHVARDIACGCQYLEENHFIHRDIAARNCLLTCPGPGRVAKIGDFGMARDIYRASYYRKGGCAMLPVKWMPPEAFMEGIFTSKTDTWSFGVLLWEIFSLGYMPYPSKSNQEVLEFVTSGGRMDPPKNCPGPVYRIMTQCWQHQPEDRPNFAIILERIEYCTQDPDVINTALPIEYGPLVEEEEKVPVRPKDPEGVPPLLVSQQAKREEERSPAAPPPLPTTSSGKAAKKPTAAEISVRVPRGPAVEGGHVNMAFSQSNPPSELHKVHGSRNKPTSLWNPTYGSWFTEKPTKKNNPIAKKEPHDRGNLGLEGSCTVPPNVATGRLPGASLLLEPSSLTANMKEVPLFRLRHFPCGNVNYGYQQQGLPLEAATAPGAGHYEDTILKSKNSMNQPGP
T2 sequence (P08581 956-1390 limits assumed): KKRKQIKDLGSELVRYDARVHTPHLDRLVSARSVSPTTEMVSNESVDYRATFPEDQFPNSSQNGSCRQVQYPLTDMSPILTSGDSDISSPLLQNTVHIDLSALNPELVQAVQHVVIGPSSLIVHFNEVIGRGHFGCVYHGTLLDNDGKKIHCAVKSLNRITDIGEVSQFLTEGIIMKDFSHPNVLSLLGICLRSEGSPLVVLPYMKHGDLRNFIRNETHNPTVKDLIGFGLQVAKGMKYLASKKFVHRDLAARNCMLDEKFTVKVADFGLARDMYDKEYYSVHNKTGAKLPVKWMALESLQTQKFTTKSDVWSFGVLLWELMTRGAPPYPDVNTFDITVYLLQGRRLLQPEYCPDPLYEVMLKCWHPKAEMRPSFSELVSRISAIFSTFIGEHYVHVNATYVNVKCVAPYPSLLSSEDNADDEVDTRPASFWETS
T3 sequence (P08581 25-1390): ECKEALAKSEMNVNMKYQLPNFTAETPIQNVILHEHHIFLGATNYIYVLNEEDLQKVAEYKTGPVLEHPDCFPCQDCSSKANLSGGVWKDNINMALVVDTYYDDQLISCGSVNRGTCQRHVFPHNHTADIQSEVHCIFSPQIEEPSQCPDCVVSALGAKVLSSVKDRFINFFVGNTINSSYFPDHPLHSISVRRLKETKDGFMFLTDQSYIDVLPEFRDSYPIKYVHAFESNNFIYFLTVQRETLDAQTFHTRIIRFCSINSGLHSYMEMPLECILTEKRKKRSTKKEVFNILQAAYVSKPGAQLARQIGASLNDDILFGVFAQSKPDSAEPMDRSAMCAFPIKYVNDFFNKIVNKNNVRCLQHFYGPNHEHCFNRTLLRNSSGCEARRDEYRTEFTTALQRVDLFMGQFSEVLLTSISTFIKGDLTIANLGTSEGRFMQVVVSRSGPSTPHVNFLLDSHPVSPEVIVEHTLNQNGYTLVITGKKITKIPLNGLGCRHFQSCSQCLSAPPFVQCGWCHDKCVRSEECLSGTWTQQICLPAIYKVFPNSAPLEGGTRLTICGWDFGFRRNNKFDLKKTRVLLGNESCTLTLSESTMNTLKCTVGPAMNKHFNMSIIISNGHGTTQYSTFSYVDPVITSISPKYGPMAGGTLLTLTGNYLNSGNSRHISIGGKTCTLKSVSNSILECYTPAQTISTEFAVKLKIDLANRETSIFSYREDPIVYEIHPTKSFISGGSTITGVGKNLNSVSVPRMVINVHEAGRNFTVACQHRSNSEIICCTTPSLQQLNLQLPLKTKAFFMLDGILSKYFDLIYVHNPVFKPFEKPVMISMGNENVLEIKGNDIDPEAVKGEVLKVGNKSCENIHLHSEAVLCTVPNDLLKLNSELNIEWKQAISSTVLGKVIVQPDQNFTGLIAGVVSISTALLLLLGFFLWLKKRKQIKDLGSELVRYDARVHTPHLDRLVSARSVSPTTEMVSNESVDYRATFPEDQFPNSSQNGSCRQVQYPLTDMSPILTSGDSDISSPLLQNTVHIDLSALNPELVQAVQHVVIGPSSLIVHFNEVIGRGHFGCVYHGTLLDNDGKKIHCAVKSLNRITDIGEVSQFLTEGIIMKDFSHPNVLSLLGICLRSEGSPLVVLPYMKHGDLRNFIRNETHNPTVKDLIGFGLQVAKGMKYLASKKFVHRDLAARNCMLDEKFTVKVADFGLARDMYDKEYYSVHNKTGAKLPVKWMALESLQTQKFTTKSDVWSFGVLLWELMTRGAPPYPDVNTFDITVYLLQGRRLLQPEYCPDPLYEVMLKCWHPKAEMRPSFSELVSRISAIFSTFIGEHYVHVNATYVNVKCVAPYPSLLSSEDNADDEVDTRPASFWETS

For orientation: melting point means the temperature, or range, at which the solid turns liquid. By inhibition is commonly meant the percentage by which the read-out fell short of the control. One may read the IC50 as the concentration at which inhibition is half-maximal. In turn, `O=C(O)c1ccc(-c2cnc3c(c2)N(Cc2c(F)ccc(F)c2Cl)C(=O)CN3)cc1` [Example 6, 4-[1-(2-Chloro-3,6-difluorobenzyl)-2-oxo-1,2,3,4-tetrahydropyrido[2,3-b]pyrazin-7-yl]benzoic acid] had a melting point above 300 °C. Besides, the inhibition at 1 µM on NPM-ALK is 0 to 25%. In addition, the IC50 in data set [1] is 10 to 100 µM. Also, in data set [2], the IC50 fell in the range of 100 to 1000 nM.
`O=C(c1ccc(-c2cnc3c(c2)N(Cc2ccccc2)CCN3)cc1)N1CCC[C@H]1CN1CCCC1` [Example 38, [4-(1-Benzyl-1,2,3,4-tetrahydropyrido[2,3-b]pyrazin-7-yl)phenyl]-((S)-2-pyrrolidinylmethylpyrrolidin-1-yl)methanone, trifluoroacetic acid salt]: the values for the IC50 (at NPM-ALK; in data set [1]; in data set [2]) were 501 to 750 nM, 0.1 to 1 µM and 100 to 1000 nM, respectively.
Compound `O=C1CNc2ncc(-c3ccc(NS(=O)(=O)CCN4CCCC4)cc3)cc2N1Cc1cc(F)ccc1F` [Example 48, 2-Pyrrolidin-1-yl-ethanesulfonic acid{4-[1-(2,5-difluorobenzyl)-2-oxo-1,2,3,4-tetrahydropyrido[2,3-b]pyrazin-7-yl]phenyl}-amide] showed a melting point above 300 °C. Also, the inhibition at 1 µM at NPM-ALK fell in the range of 26 to 50%. The IC50 in data set [1] was 1 to 10 µM. The IC50 in data set [2] lay within 100 to 1000 nM.
For the compound `O=S(=O)(CCN1CCCC1)Nc1ccc(-c2cnc3c(c2)N(Cc2cc(F)ccc2F)CCN3)cc1` [Example 51, 2-Pyrrolidin-1-yl-ethanesulfonic acid{4-[1-(2,5-difluorobenzyl)-1,2,3,4-tetrahydropyrido[2,3-b]pyrazin-7-yl]phenyl}-amide], the inhibition at 1 µM on NPM-ALK was in the range of 26 to 50%. In addition, the IC50 in data set [1] is 10 to 100 µM; in data set [2], 100 to 1000 nM.
In the case of `O=C1CNc2ncc(-c3ccc(C(=O)N4CCC[C@H]4CN4CCCC4)cc3)cc2N1Cc1cc(F)ccc1F` [Example 57, 1-(2,5-Difluorobenzyl)-7-[4-((S)-2-[(pyrrolidin-1-yl)methyl]pyrrolidine-1-carbonyl)phenyl]-3,4-dihydro-1H-pyrido[2,3-b]pyrazin-2-one], the melting point was found to be 125 °C. Also, on NPM-ALK, the inhibition at 1 µM lay in the range of 0 to 25%. Besides, in data set [1], the IC50 was in the range of 0.1 to 1 µM. The IC50 in data set [2] was 100 to 1000 nM.
The corresponding values for `O=C(NCCN1CCCC1)c1ccc(-c2cnc3c(c2)N(Cc2cc(F)ccc2F)C(=O)CN3)cc1` [Example 58, 4-[1-(2,5-Difluorobenzyl)-2-oxo-1,2,3,4-tetrahydropyrido[2,3-b]pyrazin-7-yl]-N-(2-pyrrolidin-1-yl-ethyl)benzamide] are 235 °C (dec.), 0 to 25%, 10 to 100 µM and 100 to 1000 nM.
For the compound `O=C(c1ccc(-c2cnc3c(c2)N(Cc2cc(F)ccc2F)CCN3)cn1)N1CCOCC1` [Example 76, {5-[1-(2,5-Difluorobenzyl)-1,2,3,4-tetrahydropyrido[2,3-b]pyrazin-7-yl]-pyridin-2-yl}morpholin-4-yl-methanone], the melting point was in the range of 111 to 113 °C. Besides, the inhibition at 1 µM in data set [3] (1 μM compound, read-out: c-Met autophosphorylation inhibition score, A549 Cells (1 μM)) lay within 0 to 25%. Moreover, the inhibition at 3 µM in data set [3] (3 μM compound, read-out: c-Met autophosphorylation inhibition score, A549 Cells (3 μM)) was in the range of 0 to 25%. Further, the IC50 in data set [1] lay within 1 to 10 µM. Besides, the inhibition at 1 µM in data set [4] (HT-29, 1 μM compound, read-out: c-Met autophosphorylation inhibition score, HT29 Cells (1 μM)) lay in the range of 0 to 25%. Also, in data set [4] (HT-29, 3 μM compound, read-out: c-Met autophosphorylation inhibition score, HT29 Cells (3 μM)), the inhibition at 3 µM lay within 26 to 50%. Besides, in data set [2], the half-inhibitory concentration (IC50) lay in the range of 100 to 1000 nM.
On to `Fc1ccc(F)c(CN2CCNc3ncc(-c4ccc(N5CCOCC5)nc4)cc32)c1Cl` [Example 105, 1-(2-Chloro-3,6-difluorobenzyl)-7-(6-morpholin-4-yl-pyridin-3-yl)-1,2,3,4-tetrahydropyrido[2,3-b]pyrazine], for which the IC50 against NPM-ALK is 751 to 1000 nM; in data set [1], 1 to 10 µM; in data set [2], below 100 nM.
With `CN1CCN(C(=O)c2ccc(-c3cnc4c(c3)N(Cc3cc(Cl)ccc3Cl)CCN4)cc2)CC1` [Example 132, {4-[1-(2,5-Dichlorobenzyl)-1,2,3,4-tetrahydropyrido[2,3-b]pyrazin-7-yl]phenyl}-(4-methylpiperazin-1-yl)methanone], the values for the IC50 (against NPM-ALK; in data set [1]; in data set [2]) were 251 to 500 nM, 1 to 10 µM and below 100 nM, respectively.
As to `CN(C)CCCCNC(=O)c1ccc(-c2cnc3c(c2)N(Cc2c(Cl)cccc2Cl)C(=O)CN3)cc1` [Example 144, 4-[1-(2,6-Dichlorobenzyl)-2-oxo-1,2,3,4-tetrahydropyrido[2,3-b]pyrazin-7-yl]-N-(4-dimethylaminobutyl)benzamide, trifluoroacetic acid salt], at NPM-ALK, the inhibition at 1 µM fell in the range of 0 to 25%. The IC50 is 1 to 10 µM in data set [1] and 100 to 1000 nM in data set [2].
With `CC(c1cc(F)ccc1F)N1CCNc2ncc(-c3ccc(C(=O)N4CCC[C@H]4CN4CCCC4)cc3)cc21` (stereo partly drawn) [Example 154, S-(4-{1-[1-(2,5-Difluorophenyl)ethyl]-1,2,3,4-tetrahydropyrido[2,3-b]pyrazin-7-yl}phenyl)-{2-[(pyrrolidin-1-yl)methyl]pyrrolidin-1-yl}methanone], the IC50 against NPM-ALK was 251 to 500 nM; in data set [1], 10 to 100 µM; in data set [2], below 100 nM.
The corresponding values for `CN1CCN(c2ccc(-c3cnc4c(c3)N(Cc3cc(Cl)ccc3Cl)CCN4)cn2)CC1` [Example 180, 1-(2,5-Dichlorobenzyl)-7-[6-(4-methylpiperazin-1-yl)pyridin-3-yl]-1,2,3,4-tetrahydropyrido[2,3-b]pyrazine] are 251 to 500 nM, 1 to 10 µM and below 100 nM.
For `Fc1ccc(F)c(CN2CCNc3ncc(-c4cccc(N5CCOCC5)c4)cc32)c1Cl` [Example 189, 1-(2-Chloro-3,6-difluorobenzyl)-7-(3-morpholin-4-yl-phenyl)-1,2,3,4-tetrahydropyrido[2,3-b]pyrazine], in that order: at most 250 nM, 0.1 to 1 µM and below 100 nM.
The corresponding values for `COC1CCN(C(=O)c2ccc(-c3cnc4c(c3)N(Cc3cc(Cl)ccc3C(F)(F)F)CCN4)cc2)CC1` [Example 205] are 251 to 500 nM, 1 to 10 µM and below 100 nM.
Regarding `CN(C)CCCCNC(=O)c1cnc2c(c1)N(Cc1cc(Cl)ccc1C(F)(F)F)CCN2` [Example 295, 1-[5-Chloro-2-(trifluoromethyl)benzyl]-1,2,3,4-tetrahydropyrido[2,3-b]pyrazine-7-carboxylic acid [4-(dimethylamino)butyl]amide], the IC50 is 251 to 500 nM against NPM-ALK, 1 to 10 µM in data set [1] and below 100 nM in data set [2].

(Values after patent US7601716B2, “Pyridopyrazines and derivatives thereof as ALK and c-Met inhibitors” (Cephalon, Inc., priority 2006, dated 2009).)
